The text below walks through data of PubChem BioAssay AID1996.

Each structure is given as a SMILES string. Values after ≈ are worked out from the molar mass of the structure shown. Where only a bound is given, the exact number is not on record here.

The conditions of this data set: buffer; pH 7.4; 200.0 µM.
Take `CC1(C(=O)NNC(=S)NCC2CCCO2)CC1(Cl)Cl` (stereo unspecified): the solubility (kinetic) (commonly solubility judged after dilution from a stock solution rather than from solid) is > 48.9 µg/mL. As for `CC(C)c1ccc(N=C(N)N=C(N)N)cc1.Cl`, the figure is > 38.4 µg/mL.

Turning to `COc1ccc(NC(=O)CSc2ccc(NC(C)=O)cc2)cc1S(=O)(=O)N1CCOCC1`, the solubility (kinetic) was > 71.9 µg/mL.

Compound `O/N=C/c1ccc(-c2ccccc2OC(F)(F)F)o1` showed a kinetic solubility of 1.7 µg/mL (≈ 6.27 µM). As for `O=C(Nc1ccccc1)Nc1csc2ccccc12`, the figure is 0.6 µg/mL (≈ 2.24 µM); as for `O=C(CN1CCN(c2ccccc2F)CC1)NC(=O)NC1CCCCC1`, > 54.4 µg/mL. The value for `O=C(NC(Cc1ccccc1)C(=O)O)NC12CC3CC(CC(C3)C1)C2` (stereo unspecified) was > 51.4 µg/mL; that for `COc1ccccc1NC(=O)/C(C#N)=C/c1ccncc1` was 36 µg/mL (≈ 129 µM); that for `COc1cc(OC)cc(C(=O)NCc2ccc3c(c2)OCO3)c1` was 46.1 µg/mL (≈ 146 µM). Turning to `Cc1ccc(N2CC(C(=O)NCCN3CCOCC3)CC2=O)cc1C` (stereo unspecified), the kinetic solubility is > 51.8 µg/mL.

Regarding `COc1ccccc1NC(=O)C1CCN(S(C)(=O)=O)CC1`, the kinetic solubility is > 46.9 µg/mL.

For the compound `CCN(CC(=O)NCC(=O)Nc1cccc(C)c1C)Cc1ccccc1`, the solubility (kinetic) was > 53 µg/mL. For the compound `COc1ccccc1Oc1ccnc2cc(Cl)ccc12`, the solubility (kinetic) amounted to 9.1 µg/mL (≈ 31.8 µM). Compound `COc1ccc(Br)c(C(=O)OCC(=O)N2CCc3ccccc32)c1` had a solubility (kinetic) of 2.3 µg/mL (≈ 5.89 µM).

For `COc1ccc(C)cc1NC(=O)CN1C(=O)C2CC=CCC2C1=O` (stereo unspecified), the solubility (kinetic) is > 49.3 µg/mL. Compound `CC1CC(C)CN(CC(O)COCc2ccccc2)C1.Cl` (stereo unspecified) gave a solubility (kinetic) of 46.9 µg/mL. As for `CCOc1ccccc1C(=O)NC(C(=O)NCCc1ccccn1)C(C)C` (stereo unspecified), the solubility (kinetic) is > 55.4 µg/mL. Turning to `Cc1ccccc1NC(=S)N1CCN(c2ccccc2C)CC1`, the kinetic solubility worked out at 0.6 µg/mL (≈ 1.84 µM). The value for `O=C(Nc1ccccc1O)c1ccc(C(=O)c2ccccc2)o1` was < 0.7 µg/mL; that for `Cn1cc(CCC(=O)NC2CC2)c2ccccc21` was > 36.3 µg/mL. The value for `FC(F)(F)c1cccc(-n2cc(-c3ccccc3)[nH]c2=S)c1` was < 0.3 µg/mL. `Nc1cc(=O)[nH]c(SCC(=O)Nc2cc(S(=O)(=O)N3CCCCCC3)ccc2Cl)n1` gave a kinetic solubility of 5.4 µg/mL (≈ 11.4 µM). As for `COc1ccc(CCC(=O)Nc2nccs2)cc1OC`, the figure is > 43.9 µg/mL; as for `Cc1ccnc(NC(=O)CC(c2ccccc2)c2ccccc2)n1`, 35.7 µg/mL (≈ 112 µM). `O=C(c1ccccc1F)N1CCCc2ccccc21` returned a kinetic solubility of 33.4 µg/mL (≈ 131 µM). Regarding `O=C(NC1CCCCCCC1)c1ccc(F)cc1`, the solubility (kinetic) was 25.8 µg/mL (≈ 103 µM). For the compound `Cc1ccc(NS(=O)(=O)c2ccc(-c3csc(C)n3)s2)c(C)c1`, the kinetic solubility was < 0.4 µg/mL. Take `C=CCc1c(N(CC)CC)nc(C)[nH]c1=O`: the solubility (kinetic) was > 33.2 µg/mL. Regarding `O=[N+]([O-])c1ccc(NCCN2CCOCC2)c([N+](=O)[O-])c1`, the kinetic solubility is > 44.4 µg/mL. As to `COc1cc(OC)cc(C(=O)Nc2ccc(N(C)C)c3ccccc23)c1`, the solubility (kinetic) was < 0.4 µg/mL.

With `CCCN1C(=O)C2(OCCO2)c2cc(Cl)ccc21`, the kinetic solubility is > 40.2 µg/mL. Consider `Nc1ccc(-n2cc(-c3ccccc3)[nH]c2=S)cc1`, for which the kinetic solubility was found to be 12.6 µg/mL (≈ 47.1 µM). Take `O=C(COC(=O)C12CC3CC(CC(C3)C1)C2)NCc1ccccc1`: the kinetic solubility was found to be 10.2 µg/mL (≈ 31.2 µM). The value for `CCN(CC)c1ccc(NC(=S)Nc2ccc(F)cc2)cc1` was 9 µg/mL (≈ 28.4 µM). Regarding `O=[N+]([O-])c1ccc(Cl)c(S(=O)(=O)n2ccnc2)c1`, the solubility (kinetic) was > 43.2 µg/mL. `CC(=O)Nc1nc2ccccc2n1Cc1ccc(Cl)cc1`: the solubility (kinetic) came to 7.8 µg/mL (≈ 26 µM). In the case of `COc1ccc(OC)c(/C=C2\SC(N3CCCCC3)=NC2=O)c1`, the kinetic solubility was 5.4 µg/mL (≈ 16.2 µM). For `COCCNC(=S)N1CCN(Cc2ccc3c(c2)OCO3)CC1`, the kinetic solubility amounted to 47 µg/mL (≈ 139 µM). Compound `O=C(CCC(=O)c1ccccc1)Nc1ccccc1` returned a kinetic solubility of 22.5 µg/mL (≈ 88.8 µM). The value for `COCc1cccc(C(=O)NC(c2ccccc2)c2ccccc2)c1` was 3.1 µg/mL (≈ 9.35 µM). `CCc1c(C)nc(SC/C=C/c2ccccc2)[nH]c1=O` showed a kinetic solubility of 1.4 µg/mL (≈ 4.89 µM). In the case of `Cn1c(=O)c2ccccc2n2c(=S)[nH]nc12`, the kinetic solubility is > 34.8 µg/mL. The value for `C=CCn1c(O)c(C=Nc2ccc(F)cc2)c(=O)[nH]c1=O` was 19.3 µg/mL (≈ 66.7 µM); that for `CCCNC(=O)COC(=O)c1ccc(-c2ccccc2)cc1` was 1 µg/mL (≈ 3.36 µM); that for `Cc1cc(C)nc(N(C#N)Cc2ccc(Cl)cc2)n1` was 21.7 µg/mL (≈ 79.6 µM).

Turning to `Cc1cccc2sc(NC(=O)CCNC(=O)c3ccco3)nc12`, the solubility (kinetic) stood at 5.6 µg/mL (≈ 17 µM). The value for `O=C(NCCc1ccc(F)cc1)c1cccc(NC(=O)c2ccccc2)c1` was 6 µg/mL (≈ 16.6 µM); that for `Cn1c(=S)oc2ccccc21` was 14.9 µg/mL (≈ 90.2 µM). As for `CCC(C)(NC(=O)c1ccccn1)C(=O)NC1CCCC1` (stereo unspecified), the figure is > 43.4 µg/mL; as for `CCOc1ccccc1NC(=O)c1cc(=O)[nH]c2ccc(S(=O)(=O)N3CCOCC3)cc12`, 21.4 µg/mL (≈ 46.8 µM).

Consider `CC(=O)NC(Cc1ccc(O)cc1)C(=O)NN` (stereo unspecified), for which the solubility (kinetic) is > 35.6 µg/mL.
